Source: patent US12655156B2, “Oxadiazolopyrazines and oxadiazolopyridines useful as mitochondrial uncouplers” (Virginia Tech Intellectual Properties, Inc., priority 2018, dated 2026)

Test system: whole cells (NMuLi, C2C12, and L6 cells, isolated cardiomyocytes, human primary fibroblasts)
Experiment: Oxygen consumption rate (OCR) in whole cells, Seahorse XF-24 Flux Analyzer
Type: cell-based
Conditions: increase in OCR; binned EC50 values
Method: Biological activities of the compounds synthesized is determined by determining increase in oxygen consumption rate (OCR).
Oxygen consumption rate (OCR) in whole cells is measured in general accordance with the method of Kenwood B M et al. (Mol. Met. (2014) 3:114-123).
OCR is measured using a Seahorse XF-24 Flux Analyzer (Seahorse Biosciences, North Billerica, MA). NMuLi, C2C12, and L6 cells are seeded in a Seahorse 24-well tissue culture plate at a density of 3.5×10^4 cells/well, isolated cardiomyocytes at a density of 4×10^4 cells/well, and human primary fibroblasts at a density of 1.1×10^4 cells/well. The cells are then allowed to adhere for 24 h. Prior to the assay, the media is changed to unbuffered DMEM containing pyruvate and glutamine (Gibco #12800-017, pH=7.4 at 37° C.) and the cells are equilibrated for 30 mins at 37°° C. Compounds are injected during the assay and OCR is measured using 2 min measurement periods.
2-3 wells are used per condition and averaged over three plates (n=6-9). Statistical significance is determined by two-way ANOVA with Bonferroni's posttest.
Activities are reported as binned EC50 values: A=5 μM or less; B=>5 to 20 μM; C=over 20 μM; NA=not active.

Compound | EC50
Oc1nc2nonc2nc1Nc1cccc(OC(F)(F)F)c1 [1-9, 6-((3-(Trifluoromethoxy)phenyl)amino)-[1,2,5]oxadiazolo[3,4-b]pyrazin-5-ol] | ≤ 5 µM
Oc1nc2nonc2nc1Nc1ccc(-c2ccc(OC(F)(F)F)cc2)cc1 [1-105, 6-((4′-(trifluoromethoxy)-[1,1′-biphenyl]-4-yl)amino)-[1,2,5]oxadiazolo[3,4-b]pyrazin-5-ol] | 5 to 20 µM
Oc1nc2nonc2nc1Nc1ccc(OCCCC(F)(F)F)c(C(F)(F)F)c1 [1-100, 6-((4-(4,4,4-trifluorobutoxy)-3-(trifluoromethyl)phenyl)amino)-[1,2,5]oxadiazolo[3,4-b]pyrazin-5-ol] | ≤ 5 µM
Oc1nc2nonc2nc1Nc1ccc(OCC2CC2)c(C(F)(F)F)c1 [1-92, 6-((4-(cyclopropylmethoxy)-3-(trifluoromethyl)phenyl)amino)-[1,2,5]oxadiazolo[3,4-b]pyrazin-5-ol] | ≤ 5 µM
CCCCCc1ccc(Nc2nc3nonc3nc2O)c(F)c1 [1-66, 6-((2-Fluoro-4-pentylphenyl)amino)-[1,2,5]oxadiazolo[3,4-b]pyrazin-5-ol] | ≤ 5 µM
O=C1c2ccccc2-c2ccc(Nc3nc4nonc4nc3O)cc21 [1-127, 2-((6-hydroxy-[1,2,5]oxadiazolo[3,4-b]pyrazin-5-yl)amino)-9H-fluoren-9-one] | > 20 µM
Oc1nc2nonc2nc1Nc1cccc(F)c1 [1-4, 6-((3-Fluorophenyl)amino)-[1,2,5]oxadiazolo[3,4-b]pyrazin-5-ol] | > 20 µM
Oc1nc2nonc2nc1NC1C2CC3CC(C2)CC1C3 [1-85, 6-(((1R,3R,5R,7R)-adamantan-2-yl)amino)-[1,2,5]oxadiazolo[3,4-b]pyrazin-5-ol] | > 20 µM
Oc1nc2nonc2nc1Nc1ccc(OC(F)(F)F)cc1 [1-10, 6-((4-(Trifluoromethoxy)phenyl)amino)-[1,2,5]oxadiazolo[3,4-b]pyrazin-5-ol] | 5 to 20 µM
N#Cc1cc(-c2ccc(Nc3nc4nonc4nc3O)cc2)cs1 [1-123, 4-(4-((6-hydroxy-[1,2,5]oxadiazolo[3,4-b]pyrazin-5-yl)amino)phenyl)thiophene-2-carbonitrile] | ≤ 5 µM
Oc1nc2nonc2nc1Nc1ccc(Cl)cc1 [1-21, 6-((4-Chlorophenyl)amino)-[1,2,5]oxadiazolo[3,4-b]pyrazin-5-ol] | 5 to 20 µM
Oc1nc2nonc2nc1Nc1ccc(-c2ccc(C(F)(F)F)nc2)cc1 [1-107, 6-((4-(6-(trifluoromethyl)pyridin-3-yl)phenyl)amino)-[1,2,5]oxadiazolo[3,4-b]pyrazin-5-ol] | 5 to 20 µM
Oc1nc2nonc2nc1Nc1ccc(-c2ccc(F)cc2)cc1F [1-124, 6-((3,4′-difluoro-[1,1′-biphenyl]-4-yl)amino)-[1,2,5]oxadiazolo[3,4-b]pyrazin-5-ol] | ≤ 5 µM
Oc1nc2nonc2nc1NCc1ccc(OC(F)(F)F)cc1 [1-80, 6-((4-(trifluoromethoxy)benzyl)amino)-[1,2,5]oxadiazolo[3,4-b]pyrazin-5-ol] | > 20 µM
Oc1nc2nonc2nc1Nc1cccc(-c2ccc(Cl)cc2)c1 [1-133, 6-((4′-chloro-[1,1′-biphenyl]-3-yl)amino)-[1,2,5]oxadiazolo[3,4-b]pyrazin-5-ol] | ≤ 5 µM
Oc1nc2nonc2cc1Nc1cc(C(F)(F)F)cc(C(F)(F)F)c1 [1-243, 6-((3,5-bis(trifluoromethyl)phenyl)amino)-[1,2,5]oxadiazolo[3,4-b]pyridin-5-ol] | ≤ 5 µM
Oc1nc2nonc2nc1Nc1cccc(-c2ccc(C(F)(F)F)cc2)c1 [1-131, 6-((4′-(trifluoromethyl)-[1,1′-biphenyl]-3-yl)amino)-[1,2,5]oxadiazolo[3,4-b]pyrazin-5-ol] | ≤ 5 µM
Oc1nc2nonc2nc1Nc1cccc(S(F)(F)(F)(F)F)c1 [1-31, 6-((3-(Pentafluoro-16-sulfaneyl)phenyl)amino)-[1,2,5]oxadiazolo[3,4-b]pyrazin-5-ol] | ≤ 5 µM

Compound | EC50
CC1(C)c2ccccc2-c2ccc(Nc3nc4nonc4nc3O)cc21 [1-118, 6-((9,9-dimethyl-9H-fluoren-2-yl)amino)-[1,2,5]oxadiazolo[3,4-b]pyrazin-5-ol] | ≤ 5 µM
Oc1nc2nonc2nc1Nc1ccccc1 [1-52, 6-(Phenylamino)-[1,2,5]oxadiazolo[3,4-b]pyrazin-5-ol] | > 20 µM
CCCCCc1ccc(Nc2nc3nonc3nc2O)cc1 [1-71, 6-((4-pentylphenyl)amino)-[1,2,5]oxadiazolo[3,4-b]pyrazin-5-ol] | > 20 µM
Oc1nc2nonc2nc1Nc1ccc(OC(F)(F)F)c(-c2ccc(C(F)(F)F)nc2)c1 [1-117, 6-((4-(trifluoromethoxy)-3-(6-(trifluoromethyl)pyridin-3-yl)phenyl)amino)-[1,2,5]oxadiazolo[3,4-b]pyrazin-5-ol] | 5 to 20 µM
Oc1nc2nonc2cc1Nc1ccc(C(F)(F)F)cc1 [1-242, 6-((4-(trifluoromethyl)phenyl)amino)-[1,2,5]oxadiazolo[3,4-b]pyridin-5-ol] | > 20 µM
Oc1nc2nonc2nc1Nc1ccccc1OC(F)(F)F [1-8, 6-((2-(Trifluoromethoxy)phenyl)amino)-[1,2,5]oxadiazolo[3,4-b]pyrazin-5-ol] | ≤ 5 µM
Oc1nc2nonc2cc1Nc1ccc(OC(F)(F)F)c(F)c1 [1-230, 6-((3-fluoro-4-(trifluoromethoxy)phenyl)amino)-[1,2,5]oxadiazolo[3,4-b]pyridin-5-ol] | > 20 µM
CC(C)(C)c1ccc(Nc2nc3nonc3nc2O)cc1 [1-51, 6-((4-(tert-Butyl)phenyl)amino)-[1,2,5]oxadiazolo[3,4-b]pyrazin-5-ol] | ≤ 5 µM
Oc1nc2nonc2nc1Nc1ccc(F)c(Br)c1 [1-33, 6-((3-Bromo-4-fluorophenyl)amino)-[1,2,5]oxadiazolo[3,4-b]pyrazin-5-ol] | 5 to 20 µM
CCCCCc1ccc(Nc2nc3nonc3nc2O)c(OC(F)(F)F)c1 [1-69, 6-((4-Pentyl-2-(trifluoromethoxy)phenyl)amino)-[1,2,5]oxadiazolo[3,4-b]pyrazin-5-ol] | ≤ 5 µM
Oc1nc2nonc2nc1Nc1ccc(C(F)(F)F)c(F)c1 [1-42, 6-((3-Fluoro-4-(trifluoromethyl)phenyl)amino)-[1,2,5]oxadiazolo[3,4-b]pyrazin-5-ol] | 5 to 20 µM
Oc1nc2nonc2nc1Nc1ccc(-c2cccs2)cc1 [1-106, 6-((4-(thiophen-2-yl)phenyl)amino)-[1,2,5]oxadiazolo[3,4-b]pyrazin-5-ol] | 5 to 20 µM
COc1cc(OC(F)(F)F)ccc1Nc1nc2nonc2nc1O [1-22, 6-((2-Methoxy-4-(trifluoromethoxy)phenyl)amino)-[1,2,5]oxadiazolo[3,4-b]pyrazin-5-ol] | ≤ 5 µM
Oc1nc2nonc2nc1Nc1ccc2c(c1)OCO2 [1-87, 6-(benzo[d][1,3]dioxol-5-ylamino)-[1,2,5]oxadiazolo[3,4-b]pyrazin-5-ol] | > 20 µM
Oc1nc2nonc2nc1Nc1cccc(-c2ccc(F)cc2)c1 [1-134, 6-((4′-fluoro-[1,1′-biphenyl]-3-yl)amino)-[1,2,5]oxadiazolo[3,4-b]pyrazin-5-ol] | ≤ 5 µM
Oc1nc2nonc2nc1NCc1ccc(Br)cc1 [1-77, 6-((4-bromobenzyl)amino)-[1,2,5]oxadiazolo[3,4-b]pyrazin-5-ol] | > 20 µM
Cc1ccc(C(F)(F)F)cc1Nc1nc2nonc2nc1O [1-12, 6-((2-Methyl-5-(trifluoromethyl)phenyl)amino)-[1,2,5]oxadiazolo[3,4-b]pyrazin-5-ol] | 5 to 20 µM
